ChEMBL document CHEMBL1152966, “Synthesis of 2alpha-propoxy-1alpha,25-dihydroxyvitamin D3 and comparison of its metabolism by human CYP24A1 and rat CYP24A1” (Bioorg Med Chem, 2009)

How the values were obtained:
[1] = molecular target: T1, Vitamin D3 receptor (Bos taurus) (UniProt Q28037); experiment: Binding affinity to bovine thymus VDR relative to 1-alpha,25-dihydroxyvitamin D3
T1 sequence (whole entry): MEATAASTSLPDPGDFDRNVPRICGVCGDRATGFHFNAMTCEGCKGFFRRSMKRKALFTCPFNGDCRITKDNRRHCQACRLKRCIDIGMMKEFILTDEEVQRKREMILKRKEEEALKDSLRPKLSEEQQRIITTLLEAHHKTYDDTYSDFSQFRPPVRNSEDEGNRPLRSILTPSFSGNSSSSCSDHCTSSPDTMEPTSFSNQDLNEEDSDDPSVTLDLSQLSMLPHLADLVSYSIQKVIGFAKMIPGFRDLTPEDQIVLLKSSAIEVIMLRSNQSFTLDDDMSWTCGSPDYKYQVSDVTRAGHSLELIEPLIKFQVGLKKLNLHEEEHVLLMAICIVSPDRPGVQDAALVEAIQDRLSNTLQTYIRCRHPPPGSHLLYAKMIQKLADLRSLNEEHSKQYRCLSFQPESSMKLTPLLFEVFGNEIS

[2] = molecular target: T1, Vitamin D3 receptor (Bos taurus); experiment: Displacement of [3H]1-alpha,25-dihydroxyvitamin D3 from calf thymus VDR by liquid scintillation counting
[3] = molecular target: T2, 1,25-dihydroxyvitamin D(3) 24-hydroxylase, mitochondrial (Homo sapiens, UniProt Q07973); experiment: Binding affinity to human CYP24A1 expressed in Escherichia coli assessed as catalytic efficiency after 60 mins relative 1-alpha,25-dihydroxyvitamin D3; details: 1 h
T2 sequence (Q07973 whole entry): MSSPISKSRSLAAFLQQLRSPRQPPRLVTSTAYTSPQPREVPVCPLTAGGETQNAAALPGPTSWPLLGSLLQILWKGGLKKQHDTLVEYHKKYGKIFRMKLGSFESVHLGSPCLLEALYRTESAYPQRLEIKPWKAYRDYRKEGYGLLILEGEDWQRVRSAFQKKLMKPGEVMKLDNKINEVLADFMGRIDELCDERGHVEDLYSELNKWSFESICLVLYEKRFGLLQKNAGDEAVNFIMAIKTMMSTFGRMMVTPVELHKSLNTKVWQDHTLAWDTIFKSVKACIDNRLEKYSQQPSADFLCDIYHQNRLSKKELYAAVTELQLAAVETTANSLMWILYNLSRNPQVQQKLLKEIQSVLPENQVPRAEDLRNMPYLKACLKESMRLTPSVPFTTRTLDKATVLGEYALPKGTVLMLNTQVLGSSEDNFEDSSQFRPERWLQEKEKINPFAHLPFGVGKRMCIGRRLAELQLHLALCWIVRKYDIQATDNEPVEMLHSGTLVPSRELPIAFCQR

[4] = molecular target: T3, Vitamin D-binding protein (Homo sapiens) (UniProt P02774); experiment: Binding affinity to vitamin D-binding protein relative to 1-alpha,25-dihydroxyvitamin D3
T3 sequence (whole entry): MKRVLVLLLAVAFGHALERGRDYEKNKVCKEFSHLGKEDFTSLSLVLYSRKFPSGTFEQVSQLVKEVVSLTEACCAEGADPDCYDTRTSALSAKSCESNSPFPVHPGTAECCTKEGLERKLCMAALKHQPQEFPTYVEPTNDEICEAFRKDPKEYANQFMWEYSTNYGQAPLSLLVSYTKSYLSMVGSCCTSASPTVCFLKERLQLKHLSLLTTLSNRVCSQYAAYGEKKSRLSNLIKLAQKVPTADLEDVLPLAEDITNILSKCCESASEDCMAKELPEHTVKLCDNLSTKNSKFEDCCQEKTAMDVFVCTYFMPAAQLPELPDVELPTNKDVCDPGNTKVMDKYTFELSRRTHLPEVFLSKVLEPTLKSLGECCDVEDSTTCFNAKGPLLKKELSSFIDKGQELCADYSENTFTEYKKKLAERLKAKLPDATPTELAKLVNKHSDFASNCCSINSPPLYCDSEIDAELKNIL

Row | Activity [1] [%] | Activity [2] [%] | Activity [3] [%] | Activity [4] | SMILES
1 | 180 | 180 | 2 |  | C=C1/C(=C\C=C2/CCC[C@]3(C)[C@@H]([C@H](C)CCCC(C)(C)O)CC[C@@H]23)C[C@H](O)[C@@H](OCCCO)[C@H]1O
2 | 64 |  |  |  | C=C1/C(=C\C=C2/CCC[C@]3(C)[C@@H]([C@H](C)CCCC(C)(C)O)CC[C@@H]23)C[C@H](O)[C@@H](OCCC)[C@H]1O
3 | 13 |  |  | 2 | C=C1/C(=C\C=C2/CCC[C@]3(C)[C@@H]([C@H](C)CCCC(C)(C)O)CC[C@@H]23)C[C@H](O)[C@H](OCCCO)[C@H]1O
